This note sets out measurements from patent publication US11339151B2, “Aliphatic acid amide derivative” (Sumitomo Dainippon Pharma Co., Ltd., priority 2019, dated 2022).

The target of series [1] is T1, human 5-HT7 receptor (Homo sapiens (Human), UniProt P34969). The series can be described thus: Test 1: binding activity for human 5-HT7 receptor ([3H]SB-269970, CHO cell membrane fraction). Particulars: [3H]SB-269970, room temperature 60 minutes. The protocol: (§1) Ki value was evaluated from dissociation constant which was calculated from saturated binding tests, and a substrate concentration, and it was used as an index for binding affinity.
T1 sequence (P34969 whole entry): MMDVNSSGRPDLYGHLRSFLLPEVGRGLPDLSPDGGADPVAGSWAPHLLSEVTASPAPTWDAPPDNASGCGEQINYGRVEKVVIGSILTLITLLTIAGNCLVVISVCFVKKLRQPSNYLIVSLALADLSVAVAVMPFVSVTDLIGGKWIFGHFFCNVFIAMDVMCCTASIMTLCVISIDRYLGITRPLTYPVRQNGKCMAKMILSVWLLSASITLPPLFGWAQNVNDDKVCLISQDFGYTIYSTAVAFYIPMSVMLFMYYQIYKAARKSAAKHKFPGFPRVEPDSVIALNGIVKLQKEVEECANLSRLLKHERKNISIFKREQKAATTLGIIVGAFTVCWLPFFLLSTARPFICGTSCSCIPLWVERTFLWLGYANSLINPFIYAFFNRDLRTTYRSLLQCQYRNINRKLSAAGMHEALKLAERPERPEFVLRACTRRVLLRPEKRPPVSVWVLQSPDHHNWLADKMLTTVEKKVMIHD

The target of a further series is human D2 receptor (Homo sapiens (Human), UniProt P14416). The series can be described thus: Test 1: binding activity for human D2 receptor ([3H]Spiperone, CHO cell membrane fraction). The following applies: [3H]Spiperone, room temperature 60 minutes. The protocol: as §1
human D2 receptor, sequence (P14416 whole entry): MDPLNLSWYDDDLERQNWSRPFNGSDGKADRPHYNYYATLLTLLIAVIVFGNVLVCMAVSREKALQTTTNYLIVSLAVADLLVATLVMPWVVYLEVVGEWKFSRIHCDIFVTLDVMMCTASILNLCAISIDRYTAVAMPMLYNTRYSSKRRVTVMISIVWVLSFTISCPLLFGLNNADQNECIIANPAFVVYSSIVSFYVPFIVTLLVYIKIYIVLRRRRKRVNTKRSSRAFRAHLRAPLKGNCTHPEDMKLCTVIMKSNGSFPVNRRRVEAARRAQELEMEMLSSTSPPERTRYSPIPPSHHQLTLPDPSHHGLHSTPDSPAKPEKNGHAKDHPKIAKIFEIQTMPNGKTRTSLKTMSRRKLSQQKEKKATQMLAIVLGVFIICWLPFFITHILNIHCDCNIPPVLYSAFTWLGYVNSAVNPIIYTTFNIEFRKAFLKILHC
For series [2], the target named is T1, human 5-HT7 receptor. The series can be described thus: Test 2: antagonist activity for human 5-HT7 receptor (aequorin luminescence, CHO-K1 cells). It is filed as cell-based. The following applies: Gα16. The protocol:
Test 2: Evaluation of Antagonist Activity for Human 5-HT2A Receptor and Human 5-HT7 Receptor
Aequorin, Gα 16 protein, and each receptor were transiently expressed in CHO-K1 cells (Chinese hamster ovary). The cells were cultivated in a CO2 incubator at 37° C. overnight, seeded into a 384-well plate, and stood at room temperature for 2 hours. Each compound dissolved in DMSO was added thereto, and changes in luminescence were measured by FDSS/μCELL drug discovery screening support system (Hamamatsu Photonics K.K.). As for antagonist activity, inhibitory activity of each compound was calculated by setting the luminescence level of wells to which 10 μmol/L endogenous ligand was added as 100%.

Series [3] is described as follows: Test 3-1: metabolic stability test in human hepatic microsome. It is filed as in vitro ADME. The following applies: microsome 0.1 mg/mL, test compound 0.1 μmol/L, 37° C., 30 minutes. The protocol:
Test 3-1: Metabolic Stability Test in Human Hepatic Microsome
The metabolic stability of the present compound in human hepatic microsome was evaluated as mentioned below. Human hepatic microsome was obtained from Xenontech. Human hepatic microsome, NADPH, and each test compound were mixed in 25 mmol/L phosphate buffer solution (pH 7.4) to reach the following concentrations as shown below, and the mixture was incubated at 37° C. for 30 minutes. • Human hepatic microsome: 0.1 mg/mL • NADPH: 3.2 mmol/L • Test compound: 0.1 μmol/L
The residual ratio of test compound in each sample after 30 minutes was measured by LC-MS, and the metabolic stability in human hepatic microsome was calculated from the following formula. Metabolic stability in human hepatic microsome (mL/min/mg protein)=−LN (residual ratio)/30/0.1

For another series, the target named is hERG channel (Homo sapiens (Human), UniProt Q12809). The experiment in a line: Test 5: inhibitory activity for hERG channel (whole cell patch clamp, hERG-CHO cells). In kind it is cell-based. The following applies: hERG-CHO cells, auto patch clamp. The protocol: Test 5: Evaluation of Inhibitory Activity for hERG Channel
hERG channel, sequence (Q12809 whole entry): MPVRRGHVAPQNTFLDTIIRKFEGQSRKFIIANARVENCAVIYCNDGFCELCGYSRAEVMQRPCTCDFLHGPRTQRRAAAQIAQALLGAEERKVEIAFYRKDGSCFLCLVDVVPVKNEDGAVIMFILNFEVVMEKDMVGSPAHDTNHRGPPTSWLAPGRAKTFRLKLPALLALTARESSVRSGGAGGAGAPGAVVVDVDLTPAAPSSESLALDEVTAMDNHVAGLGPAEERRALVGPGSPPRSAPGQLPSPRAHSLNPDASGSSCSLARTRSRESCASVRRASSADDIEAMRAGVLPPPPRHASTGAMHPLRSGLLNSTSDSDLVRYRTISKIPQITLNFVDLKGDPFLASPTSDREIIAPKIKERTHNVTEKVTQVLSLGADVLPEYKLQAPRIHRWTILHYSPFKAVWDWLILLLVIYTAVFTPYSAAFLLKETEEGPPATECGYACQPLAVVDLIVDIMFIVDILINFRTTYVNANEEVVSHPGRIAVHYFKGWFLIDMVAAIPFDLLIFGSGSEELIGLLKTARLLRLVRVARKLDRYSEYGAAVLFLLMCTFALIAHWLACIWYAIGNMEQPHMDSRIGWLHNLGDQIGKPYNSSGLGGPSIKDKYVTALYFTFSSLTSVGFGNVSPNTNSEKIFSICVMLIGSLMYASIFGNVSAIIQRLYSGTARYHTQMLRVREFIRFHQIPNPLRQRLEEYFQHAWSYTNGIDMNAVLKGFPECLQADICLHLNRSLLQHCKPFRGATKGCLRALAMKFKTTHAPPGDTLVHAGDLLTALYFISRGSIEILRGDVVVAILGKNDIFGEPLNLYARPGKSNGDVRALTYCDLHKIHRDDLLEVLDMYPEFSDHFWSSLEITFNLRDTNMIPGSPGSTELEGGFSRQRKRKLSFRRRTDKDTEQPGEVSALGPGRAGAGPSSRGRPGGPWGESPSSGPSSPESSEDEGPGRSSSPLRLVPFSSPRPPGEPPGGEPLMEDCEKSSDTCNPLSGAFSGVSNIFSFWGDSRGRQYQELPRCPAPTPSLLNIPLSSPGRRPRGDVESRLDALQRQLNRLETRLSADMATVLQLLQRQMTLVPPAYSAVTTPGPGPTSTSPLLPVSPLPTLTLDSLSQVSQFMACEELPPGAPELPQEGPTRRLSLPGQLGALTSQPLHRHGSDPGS
Inhibitory activity of the present compound for hERG channel was measured by whole cell patch clamp method with an auto patch clamp system using CHO cells in which hERG channel involved in human rapidly activating delayed rectifier potassium current (IKr) was forcibly expressed.
hERG-CHO cells purchased from ChanTest Cop. were cultured in a CO2 incubator at 37° C., and dissociated from a flask with trypsin shortly before the measurement of hERG current to prepare a cell suspension.
The cell suspension, the extracellular fluid, the intracellular fluid, and the measurement plate were set in an auto patch clamp system, and hERG current was measured by whole cell patch clamp method. […] Each pulse interval was 15 seconds. The data analysis was carried out with Qube Assay Software (Sophion Sophion). The test was carried out by applying incrementally 4 concentrations of each test compound, and the average of the maximum peak tail currents which were obtained from the last 3 stimulations in each concentration was determined as the evaluated data.

Take `CCN(CCN1CCC(c2c[nH]c3ccccc23)CC1)C(=O)C(C)O` (stereo not drawn) [Example 22, N-Ethyl-2-hydroxy-N-{2-[4-(1H-indol-3-yl)piperidin-1-yl]ethyl}propanamide]: the inhibition constant Ki on human 5-HT7 receptor [1] was 5.8 nM; at human D2 receptor, 528 nM. The values for the half-maximal inhibitory concentration (IC50) against human 5-HT7 receptor [2] and against hERG channel were 40 nM and more than 10000 nM, respectively. Besides, the “Metabolic stability in human hepatic microsome” value (from here on “Metabolic stability”) in series [3] was less than 0.05 mL/min/mg protein.

Regarding `CCN(CCN1CCC(c2noc3cc(F)ccc23)CC1)C(=O)C1(O)CCOCC1` [Example 11], the figures for the Ki on human 5-HT7 receptor [1] and at human D2 receptor were 5.2 nM and less than 100 nM, respectively. The results for the IC50 against human 5-HT7 receptor [2] and on hERG channel were 67 nM and 10500 nM, respectively. The “Metabolic stability” value in series [3] is reported as less than 0.05 mL/min/mg protein.

Take `CCN(CCN1CCC(c2noc3ccccc23)CC1)S(=O)(=O)CCO` [Example 61]: the figures for the Ki at human 5-HT7 receptor [1] and on human D2 receptor were 12.7 nM and 514 nM, respectively. Also, the 50% inhibitory concentration (IC50) against human 5-HT7 receptor [2] is 15 nM; on hERG channel, more than 10000 nM. In series [3], the “Metabolic stability” value is on record as less than 0.05 mL/min/mg protein.

Turning to `CCN(CCN1CCC(c2noc3cc(F)ccc23)CC1)C(=O)CC(C)O` (stereo not drawn) [Example 10], the values for the Ki at human 5-HT7 receptor [1] and at human D2 receptor were 2.7 nM and less than 100 nM, respectively. Besides, the values for the IC50 against human 5-HT7 receptor [2] and at hERG channel were 9 nM and 3600 nM, respectively. Further, in series [3], the “Metabolic stability” value is recorded as less than 0.05 mL/min/mg protein.

Consider `CCN(CCN1CCC(c2noc3ccccc23)CC1)C(=O)C(C)O` (stereo not drawn) [Example 25], for which the inhibition constant Ki on human 5-HT7 receptor [1] was 7.7 nM; on human D2 receptor it was 1390 nM. The IC50 against human 5-HT7 receptor [2] was 26 nM; against hERG channel, more than 10000 nM. Also, in series [3], the “Metabolic stability” value was less than 0.05 mL/min/mg protein.

For the compound `CC(O)C(=O)N(CCN1CCC(c2noc3cc(F)ccc23)CC1)C(C)C` (stereo not drawn) [Example 31], the inhibition constant (Ki) on human 5-HT7 receptor [1] turned out to be 1.2 nM; on human D2 receptor it was 89 nM. Besides, the IC50 against human 5-HT7 receptor [2] came to 64 nM; at hERG channel, 3100 nM. Further, the “Metabolic stability” value in series [3] is given as less than 0.05 mL/min/mg protein.

Turning to `CCN(CCN1CCC(c2noc3cc(F)ccc23)CC1)C(=O)C(C)(C)CO` [Example 7], the inhibitory constant (Ki) came out at 1 nM at human 5-HT7 receptor [1] and 79 nM on human D2 receptor. Moreover, the IC50 at human 5-HT7 receptor [2] is 11 nM; against hERG channel it was 3500 nM. Besides, the “Metabolic stability” value in series [3] was 0.08 mL/min/mg protein.

Take `CCN(CCN1CCC(c2n[nH]c3cc(F)ccc23)CC1)C(=O)C(C)O` (stereo not drawn) [Example 19, N-Ethyl-N-{2-[4-(6-fluoro-1H-indazol-3-yl)piperidin-1-yl]ethyl}-2-hydroxypropanamide]: the Ki at human 5-HT7 receptor [1] is 2.3 nM; at human D2 receptor, 105 nM. The IC50 against human 5-HT7 receptor [2] was 61 nM; on hERG channel, more than 10000 nM. Besides, the “Metabolic stability” value in series [3] is less than 0.05 mL/min/mg protein.

For the compound `CCN(CCN1CCC(c2noc3cc(F)ccc23)CC1)C(=O)C(O)CCC(=O)OC` (stereo not drawn) [Example 5], the values for the Ki on human 5-HT7 receptor [1] and at human D2 receptor were 2.4 nM and 116 nM, respectively. Besides, the values for the 50% inhibitory concentration (IC50) against human 5-HT7 receptor [2] and at hERG channel were 66 nM and 1100 nM, respectively. Besides, in series [3], the “Metabolic stability” value was 0.186 mL/min/mg protein.

As to `CCN(CCN1CCC(c2c[nH]c3cc(F)ccc23)CC1)C(=O)CCO` [Example 48], the values for the Ki at human 5-HT7 receptor [1] and at human D2 receptor were 2.7 nM and 80 nM, respectively. Besides, the IC50 on human 5-HT7 receptor [2] came to 18 nM; against hERG channel, 2900 nM. Also, the “Metabolic stability” value in series [3] is less than 0.05 mL/min/mg protein.

As to `CC[C@@H](O)C(=O)N(CC)CCN1CCC(c2noc3cc(F)ccc23)CC1` [Example 29], the Ki was 2.6 nM on human 5-HT7 receptor [1] and 146 nM at human D2 receptor. Further, the 50% inhibitory concentration (IC50) against human 5-HT7 receptor [2] came to 99 nM; against hERG channel it was 900 nM. The “Metabolic stability” value in series [3] was less than 0.05 mL/min/mg protein.

With `CCN(CCN1CCC(c2c[nH]c3ccccc23)CC1)C(=O)CCO` [Example 47], the Ki amounted to 8.9 nM at human 5-HT7 receptor [1] and 457 nM on human D2 receptor. Moreover, the values for the IC50 at human 5-HT7 receptor [2] and against hERG channel were 43 nM and 5400 nM, respectively. In series [3], the “Metabolic stability” value is on record as less than 0.05 mL/min/mg protein.
